These results are taken from article PMC12400508 (RSC Advances, 2025).

For one assay, the system named is Mtb mc^26230. Description: microbe, parasite or virus in culture. Particulars: for MIC: Mycobacterium tuberculosis; for MIC (MIC99): Mtb mc^26230, 6 days, Table 1 and text. The class given is cell-based, Mycobacterium tuberculosis.
Another assay relates to mc^26230 pMV261. Description: microbe, parasite or virus in culture. The class given is cell-based. Particulars: Mycobacterium tuberculosis, read-out: MIC, pMV261.
For another assay, the system named is THP-1 cells. Description: Cytotoxicity assay in THP-1 cells. Format: cell-based, Human. Particulars: for IC50: Homo sapiens, THP-1, 72 h, read-out: IC50 (reduces the viability of THP-1 cells by 50%); for SI, selectivity index (IC50/MIC): THP-1 IC50 / Mtb MIC.
The mark [1] stands for this setting: read-out: MIC, mc^26230 (parental strain).

In brackets after ≈: the same amount, converted by molar mass. Where two headings read alike, the source gives them in different places.

What is called IC50 is the midpoint of a concentration-inhibition curve. For `Cc1ccccc1/C=C1\SC(NNC(=O)c2ccncc2)=NC1=O` [9d], the MIC against Mtb mc^26230 was determined as 1.56 µg/mL (≈ 4.61 µM); with Mtb mc^26230 (read-out: MIC, Wild-type), 1.56 µg/mL (≈ 4.61 µM); in the assay with Mtb mc^26230 (setting [1]), 1.56 µg/mL (≈ 4.61 µM); in the assay on mc^26230 pMV261, 3.12 µg/mL (≈ 9.22 µM). Besides, the IC50 with THP-1 cells was 21 µg/mL (≈ 62.1 µM). In addition, in the assay on THP-1 cells, the “SI, selectivity index (IC50/MIC)” value turned out to be 14.
On to `O=C1N=C(NNC(=O)c2ccncc2)S/C1=C\c1ccc(F)cc1` [9j], for which the “MIC (MIC99)” value against Mtb mc^26230 worked out at 12.5 µg/mL (≈ 36.5 µM). Also, the MIC came to 12.5 µg/mL (≈ 36.5 µM) in the assay on Mtb mc^26230; 12.5 µg/mL (≈ 36.5 µM) in the assay on Mtb mc^26230 (read-out: MIC, Wild-type); 12.5 µg/mL (≈ 36.5 µM) with Mtb mc^26230 (setting [1]); 12.5 µg/mL (≈ 36.5 µM) in the assay on mc^26230 pMV261. The IC50 in the assay with THP-1 cells was determined as 18 µg/mL (≈ 52.6 µM). The “SI, selectivity index (IC50/MIC)” value in the assay with THP-1 cells is 1.4.
For `O=C1N=C(NNC(=O)c2ccncc2)S/C1=C\c1ccccc1F` [9l], the MIC in the assay on Mtb mc^26230 (setting [1]) turned out to be 25 µg/mL (≈ 73 µM).
`O=C1N=C(NNC(=O)c2ccncc2)S/C1=C\c1ccc(Cl)cc1` [9n]: in the assay on Mtb mc^26230, the “MIC (MIC99)” value was 12.5 µg/mL (≈ 34.8 µM). The MIC against Mtb mc^26230 is 12.5 µg/mL (≈ 34.8 µM); with Mtb mc^26230 (read-out: MIC, Wild-type), 12.5 µg/mL (≈ 34.8 µM); in the assay on Mtb mc^26230 (setting [1]) it was 12.5 µg/mL (≈ 34.8 µM); with mc^26230 pMV261, 25 µg/mL (≈ 69.7 µM).
Consider `O=C1N=C(NNC(=O)c2ccncc2)S/C1=C\c1ccccc1Cl` [9p], for which, in the assay on Mtb mc^26230 (setting [1]), the MIC amounted to 25 µg/mL (≈ 69.7 µM).
In the case of `NNC(=O)c1ccncc1` [INH, isoniazid, reference compound], the MIC is 0.039 µg/mL (≈ 0.284 µM) in the assay with Mtb mc^26230; 0.078 µg/mL (≈ 0.569 µM) in the assay with Mtb mc^26230 (read-out: MIC, Wild-type); 0.039 µg/mL (≈ 0.284 µM) in the assay with Mtb mc^26230 (setting [1]); 0.078 µg/mL (≈ 0.569 µM) with mc^26230 pMV261. In addition, in the assay on THP-1 cells, the half-maximal inhibitory concentration (IC50) is above 100 µg/mL. The “SI, selectivity index (IC50/MIC)” value with THP-1 cells is listed as above 100.
Take `CO[C@H]1/C=C/O[C@@]2(C)Oc3c(C)c(O)c4c(O)c(c(/C=N/N5CCN(C)CC5)c(O)c4c3C2=O)NC(=O)/C(C)=C\C=C\[C@H](C)[C@H](O)[C@@H](C)[C@@H](O)[C@@H](C)[C@H](OC(C)=O)[C@@H]1C` [RIF, reference compound]: the MIC is 0.039 µg/mL (≈ 0.0474 µM) with Mtb mc^26230 (read-out: MIC, Wild-type) and 0.039 µg/mL (≈ 0.0474 µM) in the assay on mc^26230 pMV261.
